Assay results published in publication PMC12290673, “Antileishmanial and Antitoxoplasmal Activities of 1,4-Dihydropyridines” (ACS Omega, 2025).
Where two headings read alike, the source gives them in different places.

How the values were obtained:
Vero cells = assay: Cytotoxicity assay (MTT), Vero cells; type: cell-based, African Green Monkey; details: Chlorocebus sabaeus, 72 h, mean ± SD
Description: (§1) The MTT colorimetric assay was conducted to assess the cytotoxicity of the compounds according to a method described previously. Briefly, Vero cells or macrophages were cultured in 96-well plates (5 × 10^3 cells/well/200 μL) in RPMI 1640 medium with 10% FBS at 37 °C and under 5% CO2 for 24 h. Thereafter, PBS was used to wash the cells. Then, the compounds in RPMI complete medium with 10% FBS (at varying concentrations of 50, 25, 12.5, 6.25, 3.13, 1.65, 0.75, or 0.37 μg mL^–1) were added to 96-well plates and incubated for 72 h. Cells treated with a medium containing only DMSO (1%) were used as the negative control. After washing, MTT (1 mg mL^–1 in RPMI 1640 medium) was added to each well. The cells were incubated for 4 h, and the supernatant was removed. Next, 150 μL of DMSO was added, and a microplate absorbance spectrophotometer was applied for colorimetric analysis (λ = 540 nm). Cytotoxic effects were expressed by IC50 values (concentration that caused a 50% reduction of viable cells). The experiment was performed in triplicate.

macrophages = assay: Cytotoxicity assay (MTT), macrophages; type: cell-based, BALB/c mouse; details: Mus musculus, Macrophage; 72 h, mean ± SD; read-out: IC50 macro
Description: (§2) Female BALB/c mouse peritoneal macrophages (6–8 weeks old) were used to culture L. major amastigotes to assess the activity of the compounds against amastigotes. Briefly, 1 mL of 3% Brewer’s thioglycollate medium/mouse was injected into the peritoneal cavity. After 4 days, the abdominal skin was removed to expose the peritoneal wall. Then, 3 mL of RPMI 1640 medium was injected before cells were collected by aspiration, whereupon 96-well plates containing RPMI 1640 medium with 10% FBS were used to culture 5 × 10^4 cells/well, which were incubated at 37 °C under 5% CO2 for 4 h. After washing with PBS, RPMI 1640 medium containing 5 × 10^5 promastigotes were added to each well. Next, the cells were incubated at 37 °C under humidified 5% CO2 for 24 h to enhance infection and differentiation of amastigotes. Washing with PBS several times removed free promastigotes. Fresh complete RPMI 1640 medium containing one of the tested compounds or AmB at the desired final concentration (50, 25, 12.5, 6.25, 3.13, 1.65, 0.75, or 0.37 μg mL^–1) was added and incubated at 37 °C under a humidified 5% CO2 atmosphere for 72 h. DMSO (1%), only in complete RPMI media, was used as the negative control. The percentage of infected macrophages was assessed microscopically after the medium was removed, followed by washing with PBS, fixation with methanol, and staining with Giemsa. The reading was performed in triplicate. Handling of the laboratory animals followed the instructions and rules of the Committee of Research Ethics, Deanship of Scientific Research, Qassim University, permission number 20–03–20.
as §1

[1] = system: T. gondii tachyzoites (RH strain); assay: Anti-Toxoplasma activity (infection index in Vero cells, 72 h); type: cell-based, Toxoplasma gondii; details: mean ± SD
Description: Tachyzoites of the T. gondii RH strain were cultivated in Vero cells according to a published method. Complete RPMI 1640 medium (Invitrogen, USA) with 10% fetal bovine serum (FBS, Invitrogen, USA) was used to culture Vero cells in 96-well plates (5 × 10^3 cells/well in 200 μL of medium), which were incubated at 37 °C and under 5% CO2 for 24 h. This was followed by washing with phosphate-buffered saline (PBS) to remove the medium. Then, RPMI 1640 medium with 2% FBS containing T. gondii tachyzoites (RH strain) at a ratio of 5 (parasite): 1 (Vero cells) was added. After incubation at 37 °C and under 5% CO2 for 5 h, the cells were washed with PBS and overlaid with medium containing one of the tested compounds or atovaquone (ATO) at 50, 25, 12.5, 6.25, 3.13, 1.65, 0.75, or 0.37 μg mL^–1.
After incubation at 37 °C and under 5% CO2 for 72 h, the cells were stained with 1% toluidine before being examined under an inverted photomicroscope (MCD-400, Leica, Japan) to determine the T. gondii infection index (number of infected cells from 200 tested cells). The experiment was performed in triplicate.

L. major amastigotes = assay: Activity against L. major amastigotes in peritoneal macrophages (percentage of infected macrophages, Giemsa, 72 h); type: cell-based, Leishmania major; details: intracellular amastigotes, mean ± SD, read-out: EC50 L. major ama
Description: (§3) L. major promastigotes were isolated and maintained according to a described method. BALB/c mice were injected at the hind footpads with 1 × 10^6 L. major metacyclic promastigotes. L. major amastigotes were collected from the infected mice. After 8 weeks had elapsed since inoculation, Schneider’s medium (Invitrogen, USA) containing antibiotics and 10% FBS was used to transform isolated amastigotes into promastigotes by incubation at 26 °C. Amastigote-derived promastigotes with less than five in vitro passages were only used for infection.
as §2

L. major promastigotes = assay: Activity against L. major promastigotes (MTT, 72 h); type: cell-based, Leishmania major; details: mean ± SD, read-out: EC50 L. major prom
Description: as §3
To assess the activity of the compounds against L. major promastigotes, 10^6 promastigotes/mL were cultured in 96-well plates in Schneider’s medium with 10% FBS. Then, the compounds or amphotericin B (AmB) were added to obtain the final concentrations (50, 25, 12.5, 6.25, 3.13, 1.65, 0.75, or 0.37 μg mL^–1). Negative control wells contained cultures with DMSO (1%) only. Plates were incubated at 26 °C for 72 h to evaluate the antiproliferative effect. The colorimetric MTT method was used to count viable promastigotes under a microplate absorbance spectrophotometer (xMark, Bio-Rad, USA) at 570 nm. The experiment was performed in triplicate.

## CCOC(=O)C1=C(C)NC2=C(C(=O)CC(C)(C)C2)C1c1ccc(OCc2ccccc2)cc1 (racemic) [Compound 4, (±)-ethyl 4-(4-(benzyloxy)phenyl)-2,7,7-trimethyl-5-oxo-1,4,5,6,7,8-hexahydroquinoline-3-carboxylate]
Vero cells
  IC50: 17.5 ± 3 µM
macrophages
  IC50: 25.1 ± 3.7 µM
[1]; Toxoplasma gondii, Vero
  EC50: 3.1 ± 0.4 µM
L. major amastigotes; Leishmania major
  EC50: 23.3 ± 3.4 µM
L. major promastigotes; Leishmania major
  EC50: > 46.7 µM

## CCOC(=O)C1=C(C)NC2=C(C(=O)CC(C)(C)C2)C1c1ccc(N(C)C)cc1 (centres unmarked) [Compound 5]
Vero cells
  IC50: 49.4 ± 8.8 µM
macrophages
  IC50: 49.9 ± 7.4 µM
[1]; Toxoplasma gondii, Vero
  EC50: 29.5 ± 4.1 µM
L. major amastigotes; Leishmania major
  EC50: > 54.4 µM
L. major promastigotes; Leishmania major
  EC50: > 54.4 µM

## CCOC(=O)C1=C(C)NC(C)=C(C(=O)OCC)C1c1ccc(Br)cc1 [Compound 20]
Vero cells
  IC50: 35 ± 5.9 µM
macrophages
  IC50: 44.8 ± 8.2 µM
[1]; Toxoplasma gondii, Vero
  EC50: > 50.9 µM
L. major amastigotes; Leishmania major
  EC50: > 50.9 µM
L. major promastigotes; Leishmania major
  EC50: > 50.9 µM

## CCOC(=O)C1=C(C)NC2=C(C(=O)CC(C)(C)C2)C1c1ccccc1[N+](=O)[O-] (racemic) [Compound 9, (±)-ethyl 2,7,7-trimethyl-4-(2-nitrophenyl)-5-oxo-1,4,5,6,7,8-hexahydroquinoline-3-carboxylate]
Vero cells
  IC50: 4.5 ± 0.7 µM
macrophages
  IC50: 12 ± 1.9 µM
[1]; Toxoplasma gondii, Vero
  EC50: 12 ± 1.9 µM
L. major amastigotes; Leishmania major
  EC50: 13.7 µM
L. major amastigotes
  EC50: 10.6 ± 2.1 µM
L. major promastigotes; Leishmania major
  EC50: > 58.2 µM

## CCOC(=O)C1=C(C)NC2=C(C(=O)CC(C)(C)C2)C1c1ccccc1 (centres unmarked) [Compound 1]
Vero cells
  IC50: > 61.3 µM
macrophages
  IC50: > 61.3 µM
[1]; Toxoplasma gondii, Vero
  EC50: > 61.3 µM
L. major amastigotes; Leishmania major
  EC50: > 61.3 µM
L. major promastigotes; Leishmania major
  EC50: > 61.3 µM

## CCOC(=O)C1=C(C)NC(C)=C(C(=O)OCC)C1c1ccccc1 [Compound 17]
Vero cells
  IC50: 60.1 ± 10.6 µM
macrophages
  IC50: > 63.1 µM
[1]; Toxoplasma gondii, Vero
  EC50: < 50 µM
[1]
  EC50: 49.8 ± 6.5 µM
L. major amastigotes; Leishmania major
  EC50: > 63.1 µM
L. major promastigotes; Leishmania major
  EC50: > 63.1 µM

## CCOC(=O)C1=C(C)NC2=C(C(=O)CC(C)(C)C2)C1c1cccs1 (centres unmarked) [Compound 16]
Vero cells
  IC50: 12.6 ± 2.1 µM
macrophages
  IC50: 29.9 ± 5.1 µM
[1]; Toxoplasma gondii, Vero
  EC50: 8.1 ± 1.3 µM
L. major amastigotes; Leishmania major
  EC50: 31.8 ± 5.4 µM
L. major promastigotes; Leishmania major
  EC50: > 49.3 µM

## CCOC(=O)C1=C(C)NC(C)=C(C(=O)OCC)C1c1ccc(OCc2ccccc2)cc1 [Compound 19]
Vero cells
  IC50: 33.5 ± 6.2 µM
macrophages
  IC50: 43.4 ± 7.5 µM
[1]; Toxoplasma gondii, Vero
  EC50: > 47.8 µM
L. major amastigotes; Leishmania major
  EC50: > 47.8 µM
L. major promastigotes; Leishmania major
  EC50: > 47.8 µM

## CCOC(=O)C1=C(C)NC2=C(C(=O)CC(C)(C)C2)C1c1cccc([N+](=O)[O-])c1 (centres unmarked) [Compound 10]
Vero cells
  IC50: 10.7 ± 2.1 µM
macrophages
  IC50: 24.5 ± 3.6 µM
[1]; Toxoplasma gondii, Vero
  EC50: 16.4 ± 2.5 µM
L. major amastigotes; Leishmania major
  EC50: 26.3 ± 3.7 µM
L. major promastigotes; Leishmania major
  EC50: > 54.1 µM

## CCOC(=O)C1=C(C)NC2=C(C(=O)CC(C)(C)C2)C1c1ccc(OC)cc1 (centres unmarked) [Compound 3]
Vero cells
  IC50: 49.8 ± 8.9 µM
macrophages
  IC50: 38.7 ± 6.8 µM
[1]; Toxoplasma gondii, Vero
  EC50: > 56.3 µM
L. major amastigotes; Leishmania major
  EC50: > 56.3 µM
L. major promastigotes; Leishmania major
  EC50: > 56.3 µM

## CCOC(=O)C1=C(C)NC(C)=C(C(=O)OCC)C1c1ccc(OC)cc1 [Compound 18]
Vero cells
  IC50: 45.4 ± 7.8 µM
macrophages
  IC50: > 57.9 µM
[1]; Toxoplasma gondii, Vero
  EC50: > 57.9 µM
L. major amastigotes; Leishmania major
  EC50: > 57.9 µM
L. major promastigotes; Leishmania major
  EC50: > 57.9 µM

## CCOC(=O)C1=C(C)NC2=C(C(=O)CC(C)(C)C2)C1c1cccc(Cl)c1 (centres unmarked) [Compound 8]
Vero cells
  IC50: > 55.6 µM
macrophages
  IC50: > 55.6 µM
[1]; Toxoplasma gondii, Vero
  EC50: > 55.6 µM
L. major amastigotes; Leishmania major
  EC50: > 55.6 µM
L. major promastigotes; Leishmania major
  EC50: > 55.6 µM

## CCOC(=O)C1=C(C)NC2=C(C(=O)CC(C)(C)C2)C1c1ccc(C)cc1 (centres unmarked) [Compound 2]
Vero cells
  IC50: 52.9 ± 9.8 µM
macrophages
  IC50: 47.8 ± 7.6 µM
[1]; Toxoplasma gondii, Vero
  EC50: > 58.8 µM
L. major amastigotes; Leishmania major
  EC50: > 58.8 µM
L. major promastigotes; Leishmania major
  EC50: > 58.8 µM

## CCOC(=O)C1=C(C)NC2=C(C(=O)CC(C)(C)C2)C1c1ccco1 (centres unmarked) [Compound 15]
Vero cells
  IC50: > 51.3 µM
macrophages
  IC50: > 51.3 µM
[1]; Toxoplasma gondii, Vero
  EC50: > 51.3 µM
L. major amastigotes; Leishmania major
  EC50: > 51.3 µM
L. major promastigotes; Leishmania major
  EC50: < 50 µM
L. major promastigotes
  EC50: 40 ± 6.4 µM

## CCOC(=O)C1=C(C)NC(C)=C(C(=O)OCC)C1c1ccc(O)c(OC)c1 [Compound 23]
Vero cells
  IC50: 22.1 ± 3.2 µM
macrophages
  IC50: 40.5 ± 6.8 µM
[1]; Toxoplasma gondii, Vero
  EC50: < 50 µM
[1]
  EC50: 29.8 ± 4.8 µM
L. major amastigotes; Leishmania major
  EC50: > 55.4 µM
L. major promastigotes; Leishmania major
  EC50: > 55.4 µM

## CCOC(=O)C1=C(C)NC2=C(C(=O)CC(C)(C)C2)C1c1ccc(O)c(OC)c1 (centres unmarked) [Compound 11]
Vero cells
  IC50: 45.1 ± 7.9 µM
macrophages
  IC50: 48 ± 8.1 µM
[1]; Toxoplasma gondii, Vero
  EC50: 26.5 ± 3.6 µM
L. major amastigotes; Leishmania major
  EC50: > 54 µM
L. major promastigotes; Leishmania major
  EC50: > 54 µM

## CCOC(=O)C1=C(C)NC(C)=C(C(=O)OCC)C1c1cccc(F)c1 [Compound 21]
Vero cells
  IC50: > 59.9 µM
macrophages
  IC50: > 59.9 µM
[1]; Toxoplasma gondii, Vero
  EC50: > 59.9 µM
L. major amastigotes; Leishmania major
  EC50: > 59.9 µM
L. major promastigotes; Leishmania major
  EC50: > 59.9 µM

## CCOC(=O)C1=C(C)NC2=C(C(=O)CC(C)(C)C2)C1c1ccc(Br)cc1 (centres unmarked) [Compound 6]
Vero cells
  IC50: 17.4 ± 2.9 µM
macrophages
  IC50: 23.4 ± 3.5 µM
[1]; Toxoplasma gondii, Vero
  EC50: 23.4 ± 3.5 µM
L. major amastigotes; Leishmania major
  EC50: > 49.7 µM
L. major promastigotes; Leishmania major
  EC50: > 49.7 µM

## C[C@@H]1[C@H](O)[C@@H](C)/C=C/C=C/C=C/C=C/C=C/C=C/C=C/[C@H](O[C@@H]2O[C@H](C)[C@@H](O)[C@H](N)[C@@H]2O)C[C@@H]2O[C@](O)(C[C@@H](O)C[C@@H](O)[C@H](O)CC[C@@H](O)C[C@@H](O)CC(=O)O[C@H]1C)C[C@H](O)[C@H]2C(=O)O [AmB, amphotericin B, reference compound]
Vero cells
  IC50: 10.3 ± 1.2 µM
